Values of other authors as cited in PubChem BioAssay AID1259410 (Chemical Carcinogenesis Research Information System (CCRIS), 2018).

Test system: rodent tumor promotion studies, tumor incidence
Experiment: CCRIS tumor promotion studies

Compound: CCC1(c2ccccc2)C(=O)NC(=O)NC1=O
- outcome (Carcinogen: 2-(ACETYLAMINO)FLUORINE, Doses [Carcinogen]: DIET, Doses [Promoter]: IN DIET, Route [Carcinogen]: ORAL, Route [Promoter]: ORAL, Species: RAT, Strain/Sex: MALE): liver
- outcome (Carcinogen: 3'-METHYL-4-DIMETHYLAMINOAZOBENZENE, Doses [Carcinogen]: DIET, Doses [Promoter]: IN DIET, Route [Carcinogen]: ORAL, Route [Promoter]: ORAL, Species: RAT, Strain/Sex: MALE): liver
- outcome (Carcinogen: 4-DIMETHYLAMINOAZOBENZENE, Doses [Carcinogen]: DIET, Doses [Promoter]: IN DIET, Route [Carcinogen]: ORAL, Route [Promoter]: ORAL, Species: RAT, Strain/Sex: MALE): liver
- outcome (Carcinogen: DIETHYLNITROSAMINE [55-18-5], Doses [Carcinogen]: 90 MG/KG BW ONCE, Doses [Promoter]: 90 MG/KG BW DAILY FOR UP TO 76 WK STARTING 2 WK AFTER CARCINOGEN TREATMENT (STUDY DURATION: 76 WK), Route [Carcinogen]: IP INJECTION, Route [Promoter]: DIET, Species: MOUSE, Strain/Sex: C3H/HE/MALE): liver: tumor incidence was 100% by 52 wk and 10 tumors/animal
- outcome (Carcinogen: DIETHYLNITROSAMINE [55-18-5], Doses [Carcinogen]: 90 MG/KG BW ONCE, Doses [Promoter]: 90 MG/KG BW DAILY FOR UP TO 90 WK STARTING 2 WK AFTER CARCINOGEN TREATMENT (STUDY DURATION: 92 WK), Route [Carcinogen]: IP INJECTION, Route [Promoter]: DIET, Species: MOUSE, Strain/Sex: B6C3F1/MALE): liver: promoter increased liver tumor incidence considerably, 12 tumors/animal a
- outcome (Carcinogen: DIETHYLNITROSAMINE [55-18-5], Doses [Carcinogen]: 90 MG/KG BW ONCE, Doses [Promoter]: 90 MG/KG BW DAILY FOR UP TO 90 WK STARTING 2 WK AFTER CARCINOGEN TREATMENT (STUDY DURATION: 92 WK), Route [Carcinogen]: IP INJECTION, Route [Promoter]: DIET, Species: MOUSE, Strain/Sex: C57BL/6J/MALE): liver: tumor; 5 tumors/animal at 76 wk; pb increased tumors somewhat at 40-92 wk
- outcome (Carcinogen: DIETHYLNITROSAMINE, 55-18-5, Doses [Carcinogen]: 5 MG/KG IN SALINE ONCE ON DAY 15 OF AGE, Doses [Promoter]: 0, 500 MG/L FOR 24 WK BEGINNING AT 28 DAYS OF AGE (STUDY DURATION: 28 WK), Route [Carcinogen]: INTRAPERITONEAL, Route [Promoter]: ORAL, Species: MOUSE, Strain/Sex: C3H/MALE): liver: adenoma
- outcome (Carcinogen: DIETHYLNITROSAMINE, 55-18-5, Doses [Carcinogen]: 10 MG/KG ONCE, Doses [Promoter]: 0, 500 PPM IN DIET FOR 140 D BEGINNING 30 D POST CARCINOGEN DOSE (STUDY DURATION: 450 D), Route [Carcinogen]: INTRAPERITONEAL, Route [Promoter]: ORAL, Species: RAT, Strain/Sex: SPRAGUE-DAWLEY/FEMALE): liver: adenoma or carcinoma
- outcome (Carcinogen: DIETHYLNITROSAMINE, 55-18-5, Doses [Carcinogen]: 80 MG/KG BW ONCE, Doses [Promoter]: 0, 0.05% IN DIET FOR 39 WK BEGINNING 1 WK POST CARCINOGEN DOSE (STUDY DURATION: 40 WK), Route [Carcinogen]: INTRAPERITONEAL, Route [Promoter]: ORAL, Species: RAT, Strain/Sex: F344/MALE): liver: tumor
- outcome (Carcinogen: DIETHYLNITROSAMINE, 55-18-5, Doses [Carcinogen]: 150 MG/KG ONCE, Doses [Promoter]: 0.05% IN DIET BEGINNING 2 WK POST CARCINOGEN DOSE AND CONTINUING FOR 54 WK (STUDY DURATION: 56 WK), Route [Carcinogen]: INTRAPERITONEAL, Route [Promoter]: ORAL, Species: RAT, Strain/Sex: F344/MALE): liver: hepatocellular carcinoma or neoplastic nodule
- outcome (Carcinogen: DIETHYLNITROSAMINE, 55-18-5, Doses [Carcinogen]: 150 MG/KG ONCE, Doses [Promoter]: 0.05% IN DIET BEGINNING 2 WK POST CARCINOGEN DOSE FOR 11 WK FOLLOWED BY CONTROL DIET FOR DURATION OF STUDY (STUDY DURATI, Route [Carcinogen]: INTRAPERITONEAL, Route [Promoter]: ORAL, Species: RAT, Strain/Sex: F344/MALE): liver: hepatocellular carcinoma or neoplastic nodule
- outcome (Carcinogen: DIETHYLNITROSAMINE, 55-18-5, Doses [Carcinogen]: 150 MG/KG ONCE, Doses [Promoter]: 0.05% IN DIET BEGINNING 11 WK POST CARCINOGEN DOSE AND CONTINUING FOR DURATION OF STUDY (STUDY DURATION: 56 WK), Route [Carcinogen]: INTRAPERITONEAL, Route [Promoter]: ORAL, Species: RAT, Strain/Sex: F344/MALE): liver: hepatocellular carcinoma or neoplastic nodule
- outcome (Carcinogen: DIETHYLNITROSAMINE, Doses [Carcinogen]: SC, Doses [Promoter]: IN DIET, Route [Carcinogen]: SUBCUTANEOUS, Route [Promoter]: ORAL, Species: RAT, Strain/Sex: MALE): liver
- outcome (Carcinogen: DIMETHYLNITROSAMINE, 62-75-9, Doses [Carcinogen]: 5 MG/KG IN SALINE ONCE ON DAY 15 OF AGE, Doses [Promoter]: 0, 500 MG/L FOR 24 WK BEGINNING AT 28 DAYS OF AGE (STUDY DURATION: 28 WK), Route [Carcinogen]: INTRAPERITONEAL, Route [Promoter]: ORAL, Species: MOUSE, Strain/Sex: B6C3F1/MALE): liver: adenoma
- outcome (Carcinogen: DIMETHYLNITROSAMINE, 62-75-9, Doses [Carcinogen]: 5 MG/KG IN SALINE ONCE ON DAY 15 OF AGE, Doses [Promoter]: 0, 500 MG/L FOR 24 WK BEGINNING AT 28 DAYS OF AGE (STUDY DURATION: 28 WK), Route [Carcinogen]: INTRAPERITONEAL, Route [Promoter]: ORAL, Species: MOUSE, Strain/Sex: C3H/MALE): liver: adenoma
